Data taken from patent US20080275134A1, “Methods for Treatment of Retinal Degenerative Disease” (University of Washington, priority 2005, published 2008).

Key:
retinol dehydrogenases = experiment: direct assay of retinol dehydrogenases present in the RPE; format: biochemical; details: direct assays
[1] = HPLC and mass spectrometry analysis of liver samples of treated mice; format: in vivo, mouse
Excerpt: Next, the RA oxidation pathway was investigated. […] In addition to secretion, Ret-NH2 might be degraded first by deamination to all-trans-retinol/retinal, which was seen to increase in Ret-NH2 treated cells. […] These observations explain the long-lasting effect of RetNH2, as the amide is stored and hydrolyzed back to the free amine.

[2] = test system: retinyl acetate hydrolase; experiment: direct assay of retinyl acetate hydrolase present in the RPE; format: biochemical; details: direct assays
LRAT = biological target: T1, LRAT (Bos taurus, UniProt Q9BGL2); experiment: LRAT reaction: formation of all-trans-retinyl esters by RPE microsomes; format: biochemical, bovine; details: all-trans-retinol substrate
T1 construct: Purified RPE microsomes were the source of the enzymes; from tissue; host or cells: bovine retinal pigment epithelium microsomes
T1 sequence (Q9BGL2 1-230): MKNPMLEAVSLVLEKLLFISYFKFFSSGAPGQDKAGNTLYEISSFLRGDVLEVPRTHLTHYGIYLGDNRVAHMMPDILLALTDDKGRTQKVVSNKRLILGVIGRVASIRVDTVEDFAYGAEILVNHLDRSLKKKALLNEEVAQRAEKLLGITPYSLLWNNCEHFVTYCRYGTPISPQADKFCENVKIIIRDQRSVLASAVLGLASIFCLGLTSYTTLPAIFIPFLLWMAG
Description: To test if 11-cis-retinylamine (11-cis Ret-NH2) affects isomerization and esterification, an in vitro assay was employed. In this assay both of the all-trans-retinyl esters formed in the reaction catalyzed by LRAT and 11-cis-retinol production by isomerase were measured (6). Purified RPE microsomes were the source of the enzymes, and all-trans-retinol was the substrate. […] Inhibition of isomerization by Ret-NH2 is not due to binding of CRALBP or competition with 11-cis-retinol for binding to CRALBP. […] An increased concentration of all-trans-retinol lowered the level of inhibition, as illustrated in FIG. 2B. […] Dixon's and Lineweaver-Burk plots in the standard assay conditions yielded Ki=0.1 μM for Ret-NH2 when all-trans-retinol (KM=0.3 μM) was assumed to be a substrate. […] This estimated value reflects the very potent nature of the inhibition by 11-cis-Ret-NH2.
Materials—Fresh bovine eyes were obtained from a local slaughterhouse (Schenk Packing Co., Inc., Stanwood, Wash.). Preparation of bovine RPE microsomes was performed according to previously described methods (Stecher et al., J Biol Chem 274:8577-85, 1999). […]
Reaction conditions for isomerase and LRAT reaction—The isomerase reaction was performed essentially as described previously (Stecher et al., J Biol Chem 274:8577-85, 1999). […] The average values were used and the standard deviations were calculated.

RXR = biological target: T2, RXR (Mus musculus, UniProt P28700); experiment: HEK-293 cells with DR1-lacZ reporter and mouse RXRA, β-galactosidase activity; format: cell-based; details: 48 hours treatment, micromolar concentrations
T2 construct: The RXR-A ORF was then subcloned into pcDNA3.1 Directional TOPO vector; expressed in transfected cells; host or cells: HEK-293, transient transfection with pcDNA3.1 Directional TOPO
T2 sequence (P28700 1-467): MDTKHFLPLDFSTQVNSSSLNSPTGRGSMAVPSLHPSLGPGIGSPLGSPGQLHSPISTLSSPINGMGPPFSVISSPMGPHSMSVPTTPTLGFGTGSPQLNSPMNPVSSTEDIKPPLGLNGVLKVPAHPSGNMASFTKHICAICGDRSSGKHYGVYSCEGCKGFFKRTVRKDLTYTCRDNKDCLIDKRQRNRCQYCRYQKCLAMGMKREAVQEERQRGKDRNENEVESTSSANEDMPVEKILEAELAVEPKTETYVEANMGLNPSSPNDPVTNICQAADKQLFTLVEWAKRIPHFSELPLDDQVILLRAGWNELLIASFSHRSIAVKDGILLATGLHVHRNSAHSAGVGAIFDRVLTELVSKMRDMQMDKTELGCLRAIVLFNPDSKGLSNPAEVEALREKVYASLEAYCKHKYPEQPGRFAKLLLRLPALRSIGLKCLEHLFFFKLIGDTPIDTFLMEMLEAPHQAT

RAR = experiment: F9-RARE-lacZ reporter cell line, β-galactosidase activity (DR5 elements); format: cell-based; details: 24 hours treatment, micromolar concentrations
Excerpt: 13-cis-RA can isomerize to all-trans-RA and then to 9-cis-RA, both of which are potent ligands of the RA receptor (RAR). 9-cis-RA also binds and activates the retinoid X receptor (RXR). This contributes to the toxicity of the RAR and RXR ligands. It was investigated whether Ret-NH2 can activate these nuclear receptor using reporter-cells as described previously (20). A β-galactosidase activity assay was employed to examine if all-trans-RA, 9-cis-RA, and Ret-NH2 are agonists for these nuclear receptors.
F9-RARE-lacZ cells express endogenous RAR and RXR and were transfected with a construct of lacZ under the control of a minimal promoter and upstream DR5 elements (1). F9-RARE-lacZ cells were treated with different doses of all-trans-RA or Ret-NH2 for 24 hours after which the cells were harvested and the β-galactosidase activity was measured using the soluble substrate o-nitrophenyl β-D-galactopyranoside. The colorless substrate was cleaved by β-galactosidase to yellow colored o-nitrophenol, whose absorbance was measured at 420 nm using a spectrophotometer. The experiment was repeated twice with similar results. The RARE reporter cell line F9-RARE-lacZ (SIL15-RA) was a kind gift from Dr. Michael Wagner (SUNY Downstate Medical Center) and Dr. Peter McCaffery (University of Massachusetts Medical School). […]

CC1=C(/C=C/C(C)=C/C=C/C(C)=C/CN)C(C)(C)CCC1 [Ret-NH2, Retinylamine]
inhibition of retinol dehydrogenases (retinol dehydrogenases): did not inhibited | metabolite found in liver [1]: amidated to N-retinylpalmitamide | inhibition of retinyl acetate hydrolase [2]: did not inhibited | formation of all-trans-retinyl esters (LRAT activity) (LRAT): does not inhibit

CC1=C(/C=C/C(C)=C/C=C/C(C)=C/CN)C(C)(C)CCC1 [all-trans-Ret-NH2, all-trans-retinylamine]
activation of transcription through RXR (DR1 elements) (RXR): does not activate protein transcription | activation of transcription through RAR (DR5 RARE) (RAR): does not activate protein transcription
